{
  "source": "paper PMC7083851",
  "about": "“Extended pharmacodynamic responses observed upon PROTAC-mediated degradation of RIPK2” (Communications Biology, 2020)",
  "key": {"[1]": {"assay": "Blood concentrations after subcutaneous dosing in rat PK/PD studies", "assay_type": "in vivo", "details": "rat, […] Q3D SC", "procedure": "Female CD rats (7–8 weeks old on arrival, Charles River Ltd.) were placed into groups using a randomization schedule based on body weight prior to the study start. All animals were acclimatized for a minimum of one week prior to the experiment commencing. […] PROTAC 4 was dissolved in saline with the pH adjusted to 5.0 with sodium hydroxide (1 M)."}, "[2]": {"tested_on": "RIPK2", "assay": "In vivo RIPK2 degradation in rat (PBMCs isolated from blood, Western blot)", "details": "for RIPK2: fig 5e, individual rats 6-10, time 0 = 100; for RIPK2 (time 0 = 100): rats 1-4, fig 5c", "procedure": "(§1) Rat PK/PD studies: On arrival, all rats were housed in a plastic solid bottom cage in groups of 2–3 with access to food and water ad libitum and under a 12 h light–dark cycle. Male CD or Wistar Han rats (7–9 weeks old, Charles River UK Ltd.) were randomly allocated to treatment groups upon arrival. Female CD rats (7–8 weeks old on arrival, Charles River Ltd.) were placed into groups using a randomization schedule based on body weight prior to the study start. All animals were acclimatized for a minimum of one week prior to the experiment commencing.\nSubcutaneous PROTAC solution formulations were prepared on the day of dosing as outlined below and filtered through a 0.22 µm Millex PVDF filter (Millipore) prior to PROTAC administration. PROTAC 4 was dissolved in saline with the pH adjusted to 5.0 with sodium hydroxide (1 M). […].\n(§2) Ex vivo stimulation of rat blood with L18-MDP for PD: PPD blood samples taken prior to PROTAC administration or at fixed timepoints post PROTAC administration through the course of the study, were treated ex vivo with 100 ng/mL L18-MDP (Invivogen) or vehicle (0.1% DMSO) and incubated for 4 h. Following centrifugation, plasma was collected for cytokines analysis as detailed in cytokines assay section. Additionally, RIPK2 levels were determined in PBMCs isolated from blood and where collected, in sampled colon tissue as described in the text.\nBlood was mixed with optiPREP (Sigma) and following centrifugation at 1300 × g the PBMCs layer was collected. For in vivo studies, RIPK2 levels were determined immediately via immunoblotting, whereas for in vitro studies PBMCs were treated as detailed in the in vitro treatment section.\n(§3) Statistics and reproducibility: All data were represented as percentage of the control sample: DMSO treated cells for the in vitro assays and the pre-dose or vehicle sample for the in vivo experiments.\nFor in vivo studies, RIPK2:tubulin ratios and cytokine levels from each individual experiment were analysed either using a One-way ANOVA with Dunnet’s post-test or a two way ANOVA using GraphPad Prism 5.0.4 to determine statistical significance with 95% confidence levels."}, "[3]": {"tested_on": "L18-MDP-stimulated TNFα release", "assay": "TNFα after ex vivo L18-MDP stimulation of blood from dosed rats", "assay_type": "in vivo, rat", "set-up": "key to TNFα after ex vivo L18-MDP stimulation: % of pre-dose or vehicle sample", "details": "for TNFα after ex vivo L18-MDP stimulation: fig 5b; for TNFa: fig 5e, individual rats 6-10, time 0 = 100; for TNFα inhibition (ex vivo L18-MDP): 0.05 mg/kg/day QD SC", "procedure": "as §1, with “Male” for “Rat PK/PD studies: On arrival, all rats were housed in a plastic solid bottom cage in groups of 2–3 with access to food and water ad libitum and under a 12 h light–dark cycle. Male”\nSubcutaneous PROTAC solution formulations were prepared on the day of dosing as outlined below and filtered through a 0.22 µm Millex PVDF filter (Millipore) prior to PROTAC administration. PROTAC 4 was dissolved in saline with the pH adjusted to 5.0 with sodium hydroxide (1 M).\nas §2\nCytokine measurement assay: Cytokine levels were measured in rat plasma or rat PBMCs cell culture supernatants using rat V-Plex TNFα, in human plasma or human PBMCs cell culture supernatants with either TNFα tissue culture or 7-plex kit. Rat serum and tissues samples from the in vivo L18-MDP acute inflammation model were analyzed using the rat TNFα, Il-6 and IL-8 U-Plex kits. All kits provided by Meso Scale Discovery (MSD). Levels of cytokines spontaneously released from human colon biopsies cell culture supernatants were measured using Human IL-1 beta/IL-1F2 DuoSet ELISA (Bio-techne), Human IL-6 ELISA (Immunotools) and Human TNF-alpha DuoSet ELISA (Bio-techne). All samples were processed accordingly to the manufacturer’s instructions. The MSD plates were analyzed using the MSD sector imager 6000 plate reader and cytokines concentration (pg/ml) was obtained by using the MSD DISCOVERY WORKBENCH software version 4.0.12.1\nas §3"}},
  "note": "Where “and” joins values, the source holds several entries; their conditions need not be identical. Equal values may be shown once.",
  "data": [
    {"smiles": "CN[C@@H](C)C(=O)N[C@H](C(=O)N1C[C@@H](NC(=O)c2cnc(N3CCN(CCCOc4cc5ncnc(Nc6n[nH]c(C)c6C)c5cc4S(=O)(=O)C(C)(C)C)CC3)cn2)C[C@H]1C(=O)Nc1c(F)cccc1F)C(C)(C)C", "note": "[PROTAC 6]", "values": [
      {"measurement": "time drug levels were maintained above the LLQ after the first dose", "setting": "[1]", "value": 24, "unit": "h"},
      {"measurement": "RIPK2 level (time 0 = 100), unlabelled cell under rat 8", "setting": "[2]; 0.005 mg/kg, equals the mean of the four other rats at 24 h, fig 5a", "value": 92.1904},
      {"measurement": "RIPK2 level (time 0 = 100)", "setting": "[2]; 0.005 mg/kg, time 24 h, rats 6-10, fig 5a", "value": "71.58 and 92.75 and 127.25 and 77.18"},
      {"measurement": "RIPK2 level (time 0 = 100)", "setting": "[2]; 0.005 mg/kg, time 48 h, rats 6-10, fig 5a", "value": "107.66 and 189.11 and 139.36 and 104.71 and 114.34"},
      {"measurement": "RIPK2 level (time 0 = 100)", "setting": "[2]; 0.05 mg/kg, time 6 h, rats 11-15, fig 5a", "value": "60.71 and 118.09 and 89.04 and 78.70 and 85.87"},
      {"measurement": "RIPK2 level (time 0 = 100)", "setting": "[2]; 0.05 mg/kg, time 24 h, rats 11-15, fig 5a", "value": "70.75 and 59.91 and 86.01 and 67.12 and 70.61"},
      {"measurement": "RIPK2 level (time 0 = 100)", "setting": "[2]; 0.5 mg/kg, time 72 h, rats 16-20, fig 5a", "value": "25.93 and 26.14 and 14.54 and 23.73 and 19.84"},
      {"measurement": "RIPK2", "setting": "[2]; time 24 h", "value": "41.32 and 46.91 and 38.86 and 44.83 and 39.94"},
      {"measurement": "RIPK2", "setting": "[2]; time 72 h", "value": "55.66 and 38.00 and 35.30 and 41.29 and 38.74"},
      {"measurement": "RIPK2 degradation", "setting": "[2]; rat, 0.05 mg/kg/day QD SC, last time point", "value": "> 70", "unit": "%"},
      {"measurement": "RIPK2 degradation", "setting": "[2]; rat, 0.5 mg/kg/day QD SC, 24 h", "value": "~ 70%"},
      {"measurement": "RIPK2 degradation", "setting": "[2]; rat, 0.5 mg/kg/day QD SC, last time point after third dose", "value": "> 90", "unit": "%"},
      {"measurement": "effect on RIPK2 levels, in words", "setting": "[2]; rat, single 0.005 mg/kg SC", "value": "no significant effect"},
      {"measurement": "effect on RIPK2 protein levels, in words", "setting": "[2]; rat, single 0.05 mg/kg SC", "value": "did not have a statistically significant effect"},
      {"measurement": "RIPK2 degradation", "setting": "[2]; rat, single 0.5 mg/kg SC, 6 h post-dose", "value": "53 ± 9", "unit": "%"},
      {"measurement": "RIPK2 degradation", "setting": "[2]; rat, single 0.5 mg/kg SC, 48 h", "value": "78 ± 5", "unit": "%"},
      {"measurement": "RIPK2 (time 0 = 100)", "setting": "[2]; time 6 h", "value": "85.25 and 86.14 and 86.72 and 88.07"},
      {"measurement": "RIPK2 (time 0 = 100)", "setting": "[2]; time 24 h", "value": "71.45 and 57.80 and 52.77 and 57.74"},
      {"measurement": "RIPK2 (time 0 = 100)", "setting": "[2]; time 30 h", "value": "42.20 and 43.44 and 40.14 and 48.21"},
      {"measurement": "RIPK2 (time 0 = 100)", "setting": "[2]; time 48 h", "value": "32.57 and 27.38 and 24.98 and 36.77"},
      {"measurement": "RIPK2 (time 0 = 100)", "setting": "[2]; time 54 h", "value": "24.47 and 24.71 and 23.45 and 32.20"},
      {"measurement": "TNFα after ex vivo L18-MDP stimulation", "setting": "[3]; 0.005 mg/kg, time 6 h, rats 6-10", "value": "103.74 and 107.75 and 89.01 and 67.06 and 122.94"},
      {"measurement": "TNFα after ex vivo L18-MDP stimulation", "setting": "[3]; 0.005 mg/kg, time 96 h, rats 6-10", "value": "59.51 and 62.83 and 97.91 and 70.36 and 61.76"},
      {"measurement": "TNFα after ex vivo L18-MDP stimulation", "setting": "[3]; 0.05 mg/kg, time 48 h, rats 11-15", "value": "25.93 and 24.59 and 27.99 and 42.15 and 37.98"},
      {"measurement": "TNFa", "setting": "[3]; time 24 h", "value": "0.86 and 0.61 and 0.92 and 2.90 and 3.38"},
      {"measurement": "TNFa", "setting": "[3]; time 72 h", "value": "13.57 and 6.85 and 8.80 and 22.86"},
      {"measurement": "cumulative PD effect, in words", "setting": "[3]; rat, 0.05 mg/kg Q3D SC", "value": "failed to show this cumulative PD effect"},
      {"measurement": "TNFα inhibition (ex vivo L18-MDP)", "setting": "[3]; rat, 6 h post-dose", "value": "~ 60%"},
      {"measurement": "TNFα inhibition (ex vivo L18-MDP)", "setting": "[3]; rat, 24 h post-dose", "value": "~ 60%"},
      {"measurement": "TNFα inhibition (ex vivo L18-MDP)", "setting": "[3]; rat, 54 h (6 h after third dose)", "value": "> 90", "unit": "%"},
      {"measurement": "inhibition of TNFα release (ex vivo L18-MDP)", "setting": "[3]; rat, 0.5 mg/kg/day QD SC, 24 h", "value": "> 90", "unit": "%"},
      {"measurement": "effect on TNFα levels, in words", "setting": "[3]; rat, single 0.005 mg/kg SC", "value": "no significant effect"},
      {"measurement": "inhibition of TNFα release upon ex vivo L18-MDP challenge", "setting": "[3]; rat, single 0.05 mg/kg SC, first 48 h", "value": "> 60", "unit": "%"},
      {"measurement": "inhibition of TNFα levels upon ex vivo whole blood L18-MDP challenge", "setting": "[3]; rat, single 0.5 mg/kg SC, over the duration of the study (5 days)", "value": "> 70", "unit": "%"},
      {"measurement": "TNFa (time 0 = 100)", "setting": "[3]; time 72 h, rats 11-15, fig 5d", "value": "91.60 and 114.81 and 76.37 and 83.72"}
    ]}
  ]
}
